Reference: patent publication EP0968998A1, “Cosmetic compositions, ceramide analogues with anti-elastase activity and process for their preparation” (ELF ATOCHEM S.A., priority 1998, dated 2000)

What was measured:
[1] = molecular target: T1, élastase de leucocytes humains (Homo sapiens, UniProt P08246); assay: Anti-elastase activity: release of p-nitroaniline from N-succinyl-(Ala)3-p-nitroanilide, spectrophotometry at 410 nm; type: biochemical; conditions: pH 8, 37°C, pH8, 5 min preincubation, substrate 250 µM, read-out: % I (%)
T1 construct: purchased Elastin Products Co. SE 563; host or cells: human leukocytes, as the enzyme's name says
T1 sequence (P08246 30-267): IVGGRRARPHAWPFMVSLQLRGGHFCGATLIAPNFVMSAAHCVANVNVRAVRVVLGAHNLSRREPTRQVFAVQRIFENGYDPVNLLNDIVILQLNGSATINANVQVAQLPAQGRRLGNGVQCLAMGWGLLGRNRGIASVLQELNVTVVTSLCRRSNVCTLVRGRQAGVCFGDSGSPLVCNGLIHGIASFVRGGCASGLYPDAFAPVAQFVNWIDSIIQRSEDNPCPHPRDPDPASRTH
Source text: Les exemples qui suivent permettent d'illustrer l'invention. Dans ces exemples, on utilise les méthodes d'analyse suivantes : - Spectrographie infrarouge (IR) Les spectres sont réalisés au moyen d'un appareil PERKIN ELMER 1760 IRTF, en dispersion dans KBr à 1 %. Les valeurs sont exprimées en nombre d'onde par centimètre. - Résonance magnétique nucléaire (RMN) Les spectres sont réalisés au moyen d'un appareil BRUCKER DRX 500, à 500 MHz (^1H) et 125 MHz (^13C) dans le DMSO-d6. La calibration de l'appareil est effectuée au moyen de DMSO. Les déplacements chimiques sont exprimés en ppm. L'aspect des signaux est noté : singulet (s), doublet (d), triplet (t), quadruplet (q), multiplet (m), quintuplet (*5) et couplage AB (AB). - Mesure de l'activité anti-élastase L'activité anti-élastase est mesurée selon la méthode qui consiste à faire réagir l'élastase de leucocytes humains (référence SE 563; Elastin Products Co.; Owensville, MO, USA) avec le N-succinyl-(Ala)3-p-nitroanilide (réf. S4760; Sigma) et mesurer la libération de p-nitroaniline. On utilise le N-succinyl-(Ala)3-p-nitroanilide en solution dans le tétrahydrofurane et une solution d'élastase à 100 mg/ml dans un mélange de glycérol et de tampon acétate de sodium (50/50; v/v), pH5. L'activité de l'enzyme est mesurée à 37°C dans 100 mM de tampon Tris-HCI, pH8 contenant 0,01 % de Triton X-100 (volume/volume) et 0,02 % d'azide de sodium (poids/volume). Le céramide à tester, solubilisé dans le tétrahydrofurane (concentration en THF = 0,5 % en volume) est préincubé en présence de l'enzyme (0,05 mg/ml) dans le tampon pendant 5 minutes à 37°C. On ajoute le N-succinyl-(Ala)3-p-nitroanilide (concentration finale : 250 µM) et on mesure la libération de la p-nitroaniline dans une cuve en quartz par spectrophotométrie à 410 nm. La capacité inhibitrice du céramide est exprimée en pourcentage d'inhibition (% I) selon la relation : %I = (1 -(Vi)/(Vo))×100 [formula] dans laquelle Vi et Vo sont les vitesses d'apparition de la p-nitroaniline en présence et en absence d'inhibiteur respectivement. - Mesure de l'amélioration de la barrière cutanée a) mesure de la Perte Insensible en Eau (PIE) La mesure de la PIE permet de quantifier la très faible quantité d'eau qui diffuse passivement à travers le stratum corneum. Ce paramètre représente un très bon index de la fonction barrière du stratum corneum. Cette méthode est surtout utilisée pour contrôler l'efficacité de formules cosmétiques qui, contenant certains types de lipides sont capables de diminuer la PIE et, en conséquence, d'empêcher la déshydratation du stratum corneum. La sonde est laissée en contact de la peau pendant 2 minutes environ de façon à atteindre une position d'équilibre. PIE = D'(dP)/(dx)(gradient de pression de vapeur) [formula] Les valeurs sont exprimées en g/m^2/heure et permettent de calculer un delta de PIE = PIE (peau traitée) - PIE (peau témoin). L'appareil utilisé est un Evaporimètre EPI de Servomed. Les mesures sont effectuées sur deux groupes de 15 volontaires sains ayant une peau sèche, avant l'application du produit (t=0) et après l'application (t=0,5 heure, 1 heure, 3 heures et 6 heures) sur la face interne des deux avant-bras. L'analogue de céramide selon l'invention ou le céramide témoin est incorporé dans une crème ayant la composition suivante (en % en poids) : […]

stratum corneum [2] = assay: Skin barrier improvement: transepidermal (insensible) water loss (PIE), Servomed evaporimeter, cream applied to inner forearm; type: in vivo, volontaires sains ayant une peau sèche; conditions: for Perte Insensible en Eau (PIE) M±s: cream with 0,5 % (ex. 7, témoins), 1 % (ex. 4, 8), 5 % (ex. 6)
Source text: (§1) Les exemples qui suivent permettent d'illustrer l'invention. […] Les valeurs sont exprimées en nombre d'onde par centimètre. - Résonance magnétique nucléaire (RMN) Les spectres sont réalisés au moyen d'un appareil BRUCKER DRX 500, à 500 MHz (^1H) et 125 MHz (^13C) dans le DMSO-d6. La calibration de l'appareil est effectuée au moyen de DMSO. Les déplacements chimiques sont exprimés en ppm. […] On utilise le N-succinyl-(Ala)3-p-nitroanilide en solution dans le tétrahydrofurane et une solution d'élastase à 100 mg/ml dans un mélange de glycérol et de tampon acétate de sodium (50/50; v/v), pH5. L'activité de l'enzyme est mesurée à 37°C dans 100 mM de tampon Tris-HCI, pH8 contenant 0,01 % de Triton X-100 (volume/volume) et 0,02 % d'azide de sodium (poids/volume). Le céramide à tester, solubilisé dans le tétrahydrofurane (concentration en THF = 0,5 % en volume) est préincubé en présence de l'enzyme (0,05 mg/ml) dans le tampon pendant 5 minutes à 37°C. On ajoute le N-succinyl-(Ala)3-p-nitroanilide (concentration finale : 250 µM) et on mesure la libération de la p-nitroaniline dans une cuve en quartz par spectrophotométrie à 410 nm. La capacité inhibitrice du céramide est exprimée en pourcentage d'inhibition (% I) selon la relation : %I = (1 -(Vi)/(Vo))×100 [formula] dans laquelle Vi et Vo sont les vitesses d'apparition de la p-nitroaniline en présence et en absence d'inhibiteur respectivement. - Mesure de l'amélioration de la barrière cutanée a) mesure de la Perte Insensible en Eau (PIE) La mesure de la PIE permet de quantifier la très faible quantité d'eau qui diffuse passivement à travers le stratum corneum. Ce paramètre représente un très bon index de la fonction barrière du stratum corneum. Cette méthode est surtout utilisée pour contrôler l'efficacité de formules cosmétiques qui, contenant certains types de lipides sont capables de diminuer la PIE et, en conséquence, d'empêcher la déshydratation du stratum corneum. La sonde est laissée en contact de la peau pendant 2 minutes environ de façon à atteindre une position d'équilibre. PIE = D'(dP)/(dx)(gradient de pression de vapeur) [formula] Les valeurs sont exprimées en g/m^2/heure et permettent de calculer un delta de PIE = PIE (peau traitée) - PIE (peau témoin). L'appareil utilisé est un Evaporimètre EPI de Servomed. Les mesures sont effectuées sur deux groupes de 15 volontaires sains ayant une peau sèche, avant l'application du produit (t=0) et après l'application (t=0,5 heure, 1 heure, 3 heures et 6 heures) sur la face interne des deux avant-bras. L'analogue de céramide selon l'invention ou le céramide témoin est incorporé dans une crème ayant la composition suivante (en % en poids) :
(§2) La teneur en analogue de céramide dans la crème est égale à 0,5 % (exemple 7), 1 % (exemples 4 et 8) et 5 % (exemple 6), et celle des céramides témoins (a) et (b) est égale à 0,5 %. La diminution des valeurs de PIE signifie une amélioration de la qualité de la barrière cutanée qui traduit un meilleur pouvoir retentionnel de l'eau au niveau de la couche cornée et donc une meilleure hydratation. b) hydratation cutanée L'eau peut être considérée comme un dipôle électrique capable de conduire l'électricité. Le transport d'électricité dans un champ donné est proportionnel à la quantité d'eau présente dans le stratum corneum. Plus une peau est riche en eau et plus le courant électrique passe rapidement entre 2 électrodes. Il existe donc un lien entre l'hydratation du stratum corneum et les modifications des propriétés électriques. Les mesures de capacitance, liée à la constante diélectrique de la peau, sont réalisées par le Cornéomètre Courage+Khazaka CM 200, dont la sonde présente une surface de contact avec la peau de 49 mm^2; cette sonde est appliquée avec une pression constante sur la surface cutanée à mesurer, et l'indice d'hydratation directement proportionnel au taux hydrique de surface est instantané.

stratum corneum [3] = assay: Skin hydration: capacitance measurement (Corneometer Courage+Khazaka CM 200), hydration index, cream applied to forearm; type: in vivo, volontaires sains ayant une peau sèche; conditions: for Indice d'Hydratation (IH) M±s: cream with 0,5 % (ex. 7, témoins), 1 % (ex. 4, 8), 5 % (ex. 6)
Source text: as §1, §2

[4] = t=0 heure (before application, baseline)

| inhibition at 250 µM ([1]; Concentration 250 µM) | inhibition at 500 µM ([1]; Concentration 500 µM) | Compound | Perte Insensible en Eau (PIE) M±s (stratum corneum [2]; t=0,5 heure after application) | Perte Insensible en Eau (PIE) M±s (stratum corneum [2]; [4]) | Perte Insensible en Eau (PIE) M±s (stratum corneum [2]; t=1 heure after application) | Perte Insensible en Eau (PIE) M±s (stratum corneum [2]; t=3 heures after application) | Perte Insensible en Eau (PIE) M±s (stratum corneum [2]; t=6 heures after application) | Perte Insensible en Eau (PIE) % évol. (stratum corneum [2]; t=6 heures versus t=0) | Indice d'Hydratation (IH) M±s (stratum corneum [3]; t=0,5 heure after application) | Indice d'Hydratation (IH) M±s (stratum corneum [3]; [4]) | Indice d'Hydratation (IH) M±s (stratum corneum [3]; t=1 heure after application) | Indice d'Hydratation (IH) M±s (stratum corneum [3]; t=3 heures after application) | Indice d'Hydratation (IH) M±s (stratum corneum [3]; t=6 heures after application) | Indice d'Hydratation (IH) % évol. (stratum corneum [3]; t=3 heures versus t=0) |
| --- | --- | --- | --- | --- | --- | --- | --- | --- | --- | --- | --- | --- | --- | --- |
| 55% | 66% | CCCCCCCCCCCCCCCC(=O)NC(CO)COC(=O)CCCCCCCCCCCCCCC (stereo not drawn) [Exemple 1, 1-palmitoyl-2-palmitoylamino-1,3-propanediol] | – | – | – | – | – | – | – | – | – | – | – | – |
| – | – | CCCCCCCC/C=C\CCCCCCCC(=O)NC(CC)(CO)COC(=O)CCCCCCC/C=C\CCCCCCCC (stereo not drawn) [Exemple 6, 1-oléoyl-2-éthyl-2-oléoylamino-1,3-propanediol] | 3,67±1,34 g/m^2/heure | 3,96±1,60 g/m^2/heure | 3,48±1,19 g/m^2/heure | 3,39±1,20 g/m^2/heure | 3,97±1,20 g/m^2/heure | 0% | 78,53±6,23 | 61,91±6,90 | 75,29±7,78 | 67,05±5,61 | 64,56±6,14 | – |
| – | – | CCCCCCCCCCCCCCCCCC(=O)NC(C)(CO)COC(=O)CCCCCCCCCCCCCCCCC (stereo not drawn) [Exemple 7, 1-stéaroyl-2-méthyl-2-stéaroylamino-1,3-propanediol] | 4,07±1,72 g/m^2/heure | 4,50±2,0 g/m^2/heure | 3,78±1,67 g/m^2/heure | 3,70±1,50 g/m^2/heure | 4,46±1,64 g/m^2/heure | – | 66,13±5,48 | 60,13±6,27 | 65,56±6,24 | 63,82±7,05 | 61,55±6,32 | – |
| – | – | CCCCCCCCCCCCCCCCCC(=O)NC(CO)(CO)COC(=O)CCCCCCCCCCCCCCCCC [Exemple 8, 1-stéaroyl-2-hydroxyméthyl-2-stéaroylamino-1,3-propanediol] | 4,28±1,38 g/m^2/heure | 4,52±1,02 g/m^2/heure | 3,12±1,11 g/m^2/heure | 4,62±1,14 g/m^2/heure | 4,55±1,39 g/m^2/heure | – | 67,16±7,98 | 64,13±8,01 | 67,04±7,74 | 64,13±8,37 | 64,87±7,83 | 0% |
| – | – | CCCCCCCCCCCCCCCCCC(=O)N[C@@H](CO)[C@H](O)[C@H](O)CCCCCCCCCCCCCC [Témoin (b), N-stéaroyl phytosphingosine, reference compound] | 4,09±1,86 g/m^2/heure | 4,22±2,17 g/m^2/heure | 3,80±1,75 g/m^2/heure | 3,53±1,57 g/m^2/heure | 4,36±1,82 g/m^2/heure | – | 67,55±7,89 | 61,00±7,21 | 67,45±7,33 | 63,20±5,36 | 61,36±3,79 | – |
| – | – | N-stéaroyl-D,L-sphingosine [Témoin (a), reference compound] | 3,91±1,40 g/m^2/heure | 4,40±0,90 g/m^2/heure | 3,37±1,00 g/m^2/heure | 4,20±1,09 g/m^2/heure | 4,11±1,41 g/m^2/heure | – | 67,11±7,74 | 63,95±8,45 | 67,93±9,08 | 62,67±6,59 | 63,47±6,46 | – |
